# Laboratory results as given in patent US9326513B2, “Fungicidal compositions” (Syngenta Participations AG, priority 2011, dated 2016).
# Read-outs that look alike come from different tables or passages of the source.
# Experiments:
# Assay type in all cases: cell-based
# [1] = system: Monographella nivalis (syn. Microdochium nivale, Fusarium nivale); assay: Monographella nivalis (snow mould, foot rot of cereals), PDB microtiter plate, visual after 72 hrs; conditions: applied alone
# Botrytis cinerea = Botrytis cinerea (gray mould), PDB microtiter plate, visual after 72 hrs; conditions: for inhibition at 1.25 ppm: rate 1.25 ppm; for inhibition at 2.5 ppm: rate 2.5 ppm
# Septoria tritici = Septoria tritici (leaf blotch), PDB microtiter plate, visual after 72 hrs; conditions: single compound
# [2] = system: Mycosphaerella arachidis (y. Cercospora arachidicola); assay: Mycosphaerella arachidis (brown leaf spot of groundnut), PDB microtiter plate, visual after 5-6 days; conditions: single compound
# [3] = Monographella nivalis, 0.0625 ppm
# [4] = Monographella nivalis, 0.125 ppm
# [5] = Monographella nivalis, 0.25 ppm
# [6] = Monographella nivalis, rate 0.03125 ppm
# [7] = Monographella nivalis, rate 0.0625 ppm
# [8] = Monographella nivalis, rate 0.125 ppm
# [9] = Monographella nivalis, rate 0.25 ppm
# [10] = Monographella nivalis, rate 0.5 ppm
# [11] = Monographella nivalis, rate 1 ppm
smiles,measurement,setting,value
CC(C)(C)[C@@H](O)[C@@H](Cc1ccc(Cl)cc1)n1cncn1 (racemic) [Paclobutrazol],inhibition at 0.625 ppm,"[1]; Monographella nivalis, 0.625 ppm",0%
same,inhibition at 1.25 ppm,"[1]; Monographella nivalis, 1.25 ppm",0%
same,inhibition at 2.5 ppm,"[1]; Monographella nivalis, 2.5 ppm",0%
same,inhibition at 5 ppm,"[1]; Monographella nivalis, 5 ppm",0%
same,inhibition at 10 ppm,"[1]; Monographella nivalis, 10 ppm",0%
same,inhibition at 0.15625 ppm,"[1]; Monographella nivalis, rate 0.15625 ppm",0%
same,inhibition at 0.3125 ppm,"[1]; Monographella nivalis, rate 0.3125 ppm",0%
same,inhibition at 0.625 ppm,"[1]; Monographella nivalis, rate 0.625 ppm",0%
same,inhibition at 1.25 ppm,"[1]; Monographella nivalis, rate 1.25 ppm",0%
same,inhibition at 0.625 ppm,"Botrytis cinerea; Botrytis cinerea, alone, rate 0.625 ppm",0%
same,inhibition at 1.25 ppm,"Botrytis cinerea; Botrytis cinerea, alone",0%
same,inhibition at 2.5 ppm,"Botrytis cinerea; Botrytis cinerea, alone, read-out: Activity (%)",0%
same,inhibition at 1.25 ppm,"Botrytis cinerea; Botrytis cinerea, single compound",0%
same,inhibition at 2.5 ppm,"Botrytis cinerea; Botrytis cinerea, single compound, read-out: Activity (%)",0%
same,inhibition at 5 ppm,"Botrytis cinerea; Botrytis cinerea, single compound, rate 5 ppm, read-out: Activity (%)",70%
same,inhibition at 0.15625 ppm,"Septoria tritici; Zymoseptoria tritici, 0.15625 ppm",0%
same,inhibition at 0.3125 ppm,"Septoria tritici; Zymoseptoria tritici, 0.3125 ppm",20%
same,inhibition at 0.625 ppm,"Septoria tritici; Zymoseptoria tritici, 0.625 ppm",0%
same,inhibition at 1.25 ppm,"Septoria tritici; Zymoseptoria tritici, 1.25 ppm",0%
same,inhibition at 5 ppm,"Septoria tritici; Zymoseptoria tritici, 5 ppm",70%
same,inhibition at 10 ppm,"Septoria tritici; Zymoseptoria tritici, 10 ppm",70%
same,Activity (%),Septoria tritici; 5 ppm,50%
Cn1cc(C(=O)Nc2ccc(F)cc2-c2ccc(Cl)c(Cl)c2)c(C(F)F)n1 [Bixafen],Activity (%),[1]; 0.25 ppm,20%
same,Activity (%),[2]; 0.03125 ppm,50%
same,Activity (%),[2]; 0.0625 ppm,70%
Cc1cc(C2CC2)nc(Nc2ccccc2)n1 [Cyprodinil],inhibition at 0.0015625 ppm,"[1]; Monographella nivalis, 0.0015625 ppm",0%
same,inhibition at 0.003125 ppm,"[1]; Monographella nivalis, 0.003125 ppm",20%
same,inhibition at 0.00078125 ppm,"[2]; Mycosphaerella arachidis, 0.00078125 ppm",0%
same,inhibition at 0.00125 ppm,"[2]; Mycosphaerella arachidis, 0.00125 ppm",0%
same,inhibition at 0.0015625 ppm,"[2]; Mycosphaerella arachidis, 0.0015625 ppm",0%
same,inhibition at 0.003125 ppm,"[2]; Mycosphaerella arachidis, 0.003125 ppm",0%
same,inhibition at 0.025 ppm,"[2]; Mycosphaerella arachidis, 0.025 ppm",0%
same,inhibition at 0.05 ppm,"[2]; Mycosphaerella arachidis, 0.05 ppm",0%
same,inhibition at 0.0625 ppm,"[2]; Mycosphaerella arachidis, 0.0625 ppm, read-out: Activity (%)",0%
same,inhibition at 0.1 ppm,"[2]; Mycosphaerella arachidis, 0.1 ppm",0%
same,inhibition at 0.2 ppm,"[2]; Mycosphaerella arachidis, 0.2 ppm",0%
O=C(NCCc1ncc(C(F)(F)F)cc1Cl)c1ccccc1C(F)(F)F [Fluopyram],inhibition at 0.125 ppm,"Septoria tritici; Zymoseptoria tritici, 0.125 ppm",0%
same,inhibition at 0.25 ppm,"Septoria tritici; Zymoseptoria tritici, 0.25 ppm, read-out: Activity (%)",50%
OC(Cn1cncn1)(c1ccc(F)cc1)c1ccccc1F (stereo not drawn) [Flutriafol],inhibition at 0.0625 ppm,[1]; [3],0%
same,inhibition at 0.125 ppm,[1]; [4],0%
same,inhibition at 0.25 ppm,[1]; [5],0%
same,inhibition at 0.5 ppm,"[1]; Monographella nivalis, 0.5 ppm",0%
same,inhibition at 0.03125 ppm,[1]; [6],0%
same,inhibition at 0.0625 ppm,[1]; [7],0%
same,inhibition at 0.125 ppm,[1]; [8],0%
same,inhibition at 0.25 ppm,[1]; [9],0%
same,inhibition at 0.5 ppm,[1]; [10],0%
same,inhibition at 1 ppm,[1]; [11],0%
same,inhibition at 2 ppm,"[1]; Monographella nivalis, rate 2 ppm",0%
same,inhibition at 0.125 ppm,"Botrytis cinerea; Botrytis cinerea, alone, rate 0.125 ppm",0%
same,inhibition at 0.25 ppm,"Botrytis cinerea; Botrytis cinerea, alone, rate 0.25 ppm",0%
same,inhibition at 0.5 ppm,"Botrytis cinerea; Botrytis cinerea, alone, rate 0.5 ppm",0%
same,inhibition at 1 ppm,"Botrytis cinerea; Botrytis cinerea, alone, rate 1 ppm",0%
same,inhibition at 2 ppm,"Botrytis cinerea; Botrytis cinerea, alone, rate 2 ppm",0%
same,inhibition at 0.5 ppm,"Septoria tritici; Zymoseptoria tritici, 0.5 ppm",0%
same,inhibition at 1 ppm,"Septoria tritici; Zymoseptoria tritici, 1 ppm",0%
Cn1cc(C(=O)Nc2ccccc2-c2cc(F)c(F)c(F)c2)c(C(F)F)n1 [Fluxapyroxad],Activity (%),"Botrytis cinerea; alone, rate 0.015625 ppm",20%
same,Activity (%),"Botrytis cinerea; alone, rate 0.0625 ppm",50%
same,Activity (%),"Botrytis cinerea; alone, rate 0.125 ppm",70%
same,Activity (%),Septoria tritici; 0.015625 ppm,0%
same,Activity (%),Septoria tritici; 0.03125 ppm,0%
same,Activity (%),Septoria tritici; 0.0625 ppm,20%
CC(C)C1C2CCC1c1c(NC(=O)c3cn(C)nc3C(F)F)cccc12 (stereo not drawn) [Isopyrazam],Activity (%),Septoria tritici; 0.015625 ppm,0%
same,Activity (%),Septoria tritici; 0.03125 ppm,20%
C#CCOc1ccc(CCNC(=O)C(OCC#C)c2ccc(Cl)cc2)cc1OC (stereo not drawn) [Mandipropamid],Activity (%),[1]; rate 0.03125 ppm,0%
same,Activity (%),[1]; rate 0.0625 ppm,0%
same,Activity (%),"Botrytis cinerea; alone, rate 5 ppm",0%
same,Activity (%),"Botrytis cinerea; alone, rate 10 ppm",0%
same,Activity (%),"Botrytis cinerea; alone, rate 20 ppm",0%
same,Activity (%),Septoria tritici; 0.5 ppm,70%
CC1(C)CCC(Cc2ccc(Cl)cc2)C1(O)Cn1cncn1 (stereo not drawn) [Metconazole],inhibition at 0.0625 ppm,[1]; [3],0%
same,inhibition at 0.125 ppm,[1]; [4],0%
same,inhibition at 0.25 ppm,[1]; [5],0%
same,inhibition at 0.5 ppm,"[1]; Monographella nivalis, 0.5 ppm",0%
same,inhibition at 1 ppm,"[1]; Monographella nivalis, 1 ppm",20%
same,inhibition at 0.015625 ppm,"[1]; Monographella nivalis, rate 0.015625 ppm",0%
same,inhibition at 0.03125 ppm,[1]; [6],0%
same,inhibition at 0.0625 ppm,[1]; [7],0%
same,inhibition at 0.125 ppm,[1]; [8],0%
same,inhibition at 0.25 ppm,[1]; [9],0%
same,inhibition at 0.5 ppm,[1]; [10],0%
same,inhibition at 1 ppm,[1]; [11],20%
same,inhibition at 0.015625 ppm,"Botrytis cinerea; Botrytis cinerea, alone, rate 0.015625 ppm",0%
same,inhibition at 0.03125 ppm,"Botrytis cinerea; Botrytis cinerea, alone, rate 0.03125 ppm, read-out: Activity (%)",0%
same,inhibition at 0.03125 ppm,"Septoria tritici; Zymoseptoria tritici, 0.03125 ppm",0%
same,inhibition at 0.0625 ppm,"Septoria tritici; Zymoseptoria tritici, 0.0625 ppm",70%
same,Activity (%),Septoria tritici; 0.0625 ppm,50%
